We go through 20 compounds from patent US9371331B2, “Modulators of methyl modifying enzymes, compositions and uses thereof” (Constellation Pharmaceuticals, Inc., priority 2012, dated 2016).

In one assay the target is EZH2 (rPRC2) (Homo sapiens, UniProt Q15910). Description: EZH2 assay: rPRC2, biotinylated oligonucleosomes, 3H SAM methyl transfer (FlashPlate scintillation). The format is biochemical. The following applies: biotinylated oligonucleosome substrate. The protocol:
Assays were carried out by mixing rPRC2 together with biotinylated oligonucleosome substrates in the presence of the radio-labeled enzyme co-factor, S-adenosyl-1-methionine (^3H SAM) (Perkin Elmer) and monitoring the enzymatically mediated transfer of tritiated methyl groups from ^3H SAM to histone lysine residues. The amount of resulting tritiated methyl histone product was measured by first capturing the biotinylated oligonucleosomes in streptavidin (SAV) coated FlashPlates (Perkin Elmer), followed by a wash step to remove un-reacted ^3H SAM, and then counting on a TopCount NXT 384 well plate scintillation counter (Perkin Elmer). The final assay conditions for EZH2 were as follows: 50 mM Tris Buffer pH 8.5, 1 mM DTT, 69 μM Brij-35 detergent, 5.0 mM MgCl2, 0.1 mg/mL BSA, 0.2 μM ^3H SAM, 0.2 μM biotinylated oligonucleosomes, 3.6 μM H3K27 mc3 peptide and 2 nM EZH2.
A 12.5 μL volume of the HMT enzyme, H3K27me3 peptide and oligonucleosome substrate in assay buffer was added to each well of the assay plate using a Multidrop Combi (ThermoFisher). Compounds were pre-incubated with the enzyme for 20 min, followed by initiation of the methyltransferase reaction by addition of 12.5 μL of ^3H SAM in assay buffer (final volume=25 μL). The final concentrations of compounds ranged from a top default concentration of 80 μM down to 0.16 μM in ten 2-fold dilution steps. Reactions were carried out for 60 minutes and quenched with 20 μL per well of 1.96 mM SAH, 50 mM Tris pH 8.5, 200 mM EDTA. Stopped reactions were transferred to SAV coated Flashplates (Perkin Elmer), incubated for 120 min, washed with a plate washer, and then read on the TopCount NXT (1.0 min/well) to measure the amount of methyl histone product formed during the reaction.

The target in the next assay is Y641N EZH2 (Homo sapiens, UniProt Q15910, Y641N). Nature of the assay: Y641N EZH2 assay: as EZH2 assay, with reconstituted H3K27Me2 oligonucleosomes as substrate. The format is biochemical.
Y641N EZH2, sequence (Q15910 whole entry Y641N): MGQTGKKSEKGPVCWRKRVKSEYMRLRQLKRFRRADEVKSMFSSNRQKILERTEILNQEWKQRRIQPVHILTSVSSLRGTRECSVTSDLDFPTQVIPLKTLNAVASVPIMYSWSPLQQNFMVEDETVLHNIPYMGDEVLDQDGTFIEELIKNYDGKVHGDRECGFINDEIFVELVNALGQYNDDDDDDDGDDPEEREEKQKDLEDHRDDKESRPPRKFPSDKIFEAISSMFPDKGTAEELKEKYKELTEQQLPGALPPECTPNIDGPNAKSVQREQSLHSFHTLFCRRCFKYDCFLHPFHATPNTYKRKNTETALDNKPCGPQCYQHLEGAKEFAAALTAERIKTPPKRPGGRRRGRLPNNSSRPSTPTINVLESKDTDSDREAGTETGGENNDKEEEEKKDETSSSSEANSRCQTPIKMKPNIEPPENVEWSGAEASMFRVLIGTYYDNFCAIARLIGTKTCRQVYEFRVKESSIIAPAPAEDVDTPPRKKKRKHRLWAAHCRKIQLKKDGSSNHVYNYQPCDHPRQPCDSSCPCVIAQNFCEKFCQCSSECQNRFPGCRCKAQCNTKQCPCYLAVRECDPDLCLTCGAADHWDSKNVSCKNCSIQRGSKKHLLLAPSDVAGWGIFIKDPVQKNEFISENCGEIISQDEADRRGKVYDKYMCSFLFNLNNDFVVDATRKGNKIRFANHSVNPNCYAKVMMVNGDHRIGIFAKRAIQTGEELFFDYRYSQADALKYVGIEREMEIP
Y641N EZH2, sequence (O75530 whole entry partner): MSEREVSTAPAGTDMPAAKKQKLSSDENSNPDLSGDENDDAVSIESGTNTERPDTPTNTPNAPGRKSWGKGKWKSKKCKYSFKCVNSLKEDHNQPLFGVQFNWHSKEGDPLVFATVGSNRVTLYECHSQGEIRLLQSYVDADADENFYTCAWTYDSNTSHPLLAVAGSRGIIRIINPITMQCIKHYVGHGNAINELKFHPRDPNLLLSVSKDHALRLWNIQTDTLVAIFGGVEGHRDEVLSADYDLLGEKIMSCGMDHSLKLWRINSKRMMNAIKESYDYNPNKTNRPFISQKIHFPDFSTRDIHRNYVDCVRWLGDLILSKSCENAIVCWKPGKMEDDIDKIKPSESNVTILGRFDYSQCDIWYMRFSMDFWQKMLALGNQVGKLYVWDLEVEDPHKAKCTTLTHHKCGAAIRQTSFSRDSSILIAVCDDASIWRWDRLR
Y641N EZH2, sequence (Q15022 whole entry partner): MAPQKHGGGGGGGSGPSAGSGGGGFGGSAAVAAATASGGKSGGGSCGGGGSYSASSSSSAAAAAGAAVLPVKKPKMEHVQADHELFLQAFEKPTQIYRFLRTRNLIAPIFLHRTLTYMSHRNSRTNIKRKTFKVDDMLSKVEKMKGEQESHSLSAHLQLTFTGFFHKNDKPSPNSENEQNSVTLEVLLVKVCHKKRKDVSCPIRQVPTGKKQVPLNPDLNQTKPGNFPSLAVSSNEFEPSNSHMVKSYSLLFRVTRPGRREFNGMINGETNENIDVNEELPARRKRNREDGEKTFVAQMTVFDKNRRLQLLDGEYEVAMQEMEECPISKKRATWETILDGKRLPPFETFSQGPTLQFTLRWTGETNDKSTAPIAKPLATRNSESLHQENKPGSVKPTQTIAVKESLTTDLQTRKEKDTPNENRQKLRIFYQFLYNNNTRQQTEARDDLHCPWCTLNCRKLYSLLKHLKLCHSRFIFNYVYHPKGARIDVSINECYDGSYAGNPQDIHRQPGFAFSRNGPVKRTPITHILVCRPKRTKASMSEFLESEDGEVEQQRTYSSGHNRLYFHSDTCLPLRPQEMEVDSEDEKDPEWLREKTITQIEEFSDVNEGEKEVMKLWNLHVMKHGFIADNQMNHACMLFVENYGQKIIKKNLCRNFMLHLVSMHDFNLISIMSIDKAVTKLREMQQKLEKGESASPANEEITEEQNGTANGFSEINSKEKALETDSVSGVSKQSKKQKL
Where [1] appears, read: EZH2 IC50, wild-type EZH2 (rPRC2).
Where [2] appears, read: Y641N EZH2 IC50, Y641N mutant EZH2, H3K27Me2 oligonucleosome substrate.
[3] abbreviates: wild-type EZH2 (rPRC2), read-out: EZH2 IC50.
[4] abbreviates: Y641N mutant EZH2, H3K27Me2 oligonucleosome substrate, read-out: Y641N EZH2 IC50.
The mark [5] stands for this setting: Y641N mutant EZH2, H3K27Me2 oligonucleosome substrate.

Like-named read-outs stand apart in the source and are kept apart here.

EZH2 (rPRC2), sequence (Q15910 whole entry): as the sequence (Q15910 whole entry Y641N) above, with N641Y counted along it
EZH2 (rPRC2), sequence (O75530 whole entry partner): as the sequence (O75530 whole entry partner) above
EZH2 (rPRC2), sequence (Q15022 whole entry partner): as the sequence (Q15022 whole entry partner) above

As usually defined, the IC50 is the midpoint of a concentration-inhibition curve. Take `COc1nccc(C(C)n2c(C)c(C(=O)NCc3c(OC)cc(C)[nH]c3=O)c3cccnc32)n1` (racemic) [Compound 232, (±)-N-((4-methoxy-6-methyl-2-oxo-1,2-dihydropyridin-3-yl)methyl)-1-(1-(2-methoxypyrimidin-4-yl)ethyl)-2-methyl-1H-pyrrolo[2,3-b]pyridine-3-carboxamide]: the IC50 on EZH2 (rPRC2) (setting [1]) lay within 100 to 1000 nM; on Y641N EZH2 (setting [2]), 1000 to 10000 nM.

As for `COc1nccc(C(C)n2c(C)c(C(=O)NCc3c(C)cc(C)[nH]c3=O)c3cccnc32)n1` (racemic) [Compound 233, (±)-N-((4,6-dimethyl-2-oxo-1,2-dihydropyridin-3-yl)methyl)-1-(1-(2-methoxypyrimidin-4-yl)ethyl)-2-methyl-1H-pyrrolo[2,3-b]pyridine-3-carboxamide], the half-maximal inhibitory concentration (IC50) at EZH2 (rPRC2) (setting [1]) fell in the range of 100 to 1000 nM; at Y641N EZH2 (setting [2]), 1000 to 10000 nM.

As to `CCOc1cc(C)[nH]c(=O)c1CNC(=O)c1c(C)n(C(C)COC)c2ncccc12` (racemic) [Compound 235, (±)-N-((4-ethoxy-6-methyl-2-oxo-1,2-dihydropyridin-3-yl)methyl)-1-(1-methoxypropan-2-yl)-2-methyl-1H-pyrrolo[2,3-b]pyridine-3-carboxamide], the figures for the 50% inhibitory concentration (IC50) against EZH2 (rPRC2) (setting [1]) and at Y641N EZH2 (setting [2]) were 100 to 1000 nM and 1000 to 10000 nM, respectively.

As to `Cc1cc(C)c(CNC(=O)c2c(C)n(C(C)CN3CCOCC3)c3ncccc23)c(=O)[nH]1` (racemic) [Compound 237, (±)-N-((4,6-dimethyl-2-oxo-1,2-dihydropyridin-3-yl)methyl)-2-methyl-1-(1-morpholinopropan-2-yl)-1H-pyrrolo[2,3-b]pyridine-3-carboxamide], the figures for the 50% inhibitory concentration (IC50) at EZH2 (rPRC2) (setting [1]) and on Y641N EZH2 (setting [2]) were 100 to 1000 nM and 1000 to 10000 nM, respectively.

As for `Cc1cc(C)c(CNC(=O)c2c(C)n(C(C)Cn3ccccc3=O)c3ncccc23)c(=O)[nH]1` (racemic) [Compound 249, (±)-N-((4,6-dimethyl-2-oxo-1,2-dihydropyridin-3-yl)methyl)-2-methyl-1-(1-(2-oxopyridin-1(2H)-yl)propan-2-yl)-1H-pyrrolo[2,3-b]pyridine-3-carboxamide], the IC50 at EZH2 (rPRC2) (setting [3]) was in the range of 100 to 1000 nM; on Y641N EZH2 (setting [4]), 1000 to 10000 nM.

For the compound `COc1cc(C)[nH]c(=O)c1CNC(=O)c1c(C)n(C(C)COc2ccccn2)c2ncccc12` (racemic) [Compound 251, (±)-N-((4-methoxy-6-methyl-2-oxo-1,2-dihydropyridin-3-yl)methyl)-2-methyl-1-(1-(pyridine-2-yloxy)propan-2-yl)-1H-pyrrolo[2,3-b]pyridine-3-carboxamide], the IC50 at EZH2 (rPRC2) (setting [3]) and at Y641N EZH2 (setting [4]) was 100 to 1000 nM each time.

Turning to `CCOc1cc(C)[nH]c(=O)c1CNC(=O)c1c(C)n(C(C)c2ccccc2)c2cnccc12` (racemic) [Compound 255, (±)-N-((4-ethoxy-6-methyl-2-oxo-1,2-dihydropyridin-3-yl)methyl)-2-methyl-1-(1-phenylethyl)-1H-pyrrolo[2,3-c]pyridine-3-carboxamide], the half-inhibitory concentration (IC50) was less than 100 nM on EZH2 (rPRC2) (setting [1]) and 1000 to 10000 nM at Y641N EZH2 (setting [2]).

With `COCC(C)n1c(C)c(C(=O)NCc2c(OC)cc(C3CC3)[nH]c2=O)c2cccnc21` (racemic) [Compound 260, (±)-N-((6-cyclopropyl-4-methoxy-2-oxo-1,2-dihydropyridin-3-yl)methyl)-1-(1-methoxypropan-2-yl)-2-methyl-1H-pyrrolo[2,3-b]pyridine-3-carboxamide], the IC50 at EZH2 (rPRC2) (setting [1]) was 100 to 1000 nM; against Y641N EZH2 (setting [2]), 1000 to 10000 nM.

Turning to `Cc1cc(C)c(CNC(=O)c2c(C)n(C(C)CN3CCCCC3)c3ncccc23)c(=O)[nH]1` (racemic) [Compound 272, (±)-N-((4,6-dimethyl-2-oxo-1,2-dihydropyridin-3-yl)methyl)-2-methyl-1-(1-(piperidin-1-yl)propan-2-yl)-1H-pyrrolo[2,3-b]pyridine-3-carboxamide], the IC50 on EZH2 (rPRC2) (setting [1]) was in the range of 1000 to 10000 nM. In addition, the “Y641N EZH2 IC50” value on Y641N EZH2 (setting [5]) is “*(10 μM)”.

Turning to `CCC(OC)C(C)n1c(C)c(C(=O)NCc2c(C)cc(C)[nH]c2=O)c2ccccc21` (racemic) [Compound 275, (±)-N-((4,6-dimethyl-2-oxo-1,2-dihydropyridin-3-yl)methyl)-1-(3-methoxypentan-2-yl)-2-methyl-1H-indole-3-carboxamide], the concentration for half-maximal inhibition (IC50) at EZH2 (rPRC2) (setting [1]) and against Y641N EZH2 (setting [2]) was less than 100 nM each time.

Turning to `COc1cc(C)[nH]c(=O)c1CNC(=O)c1c(C)n(C(C)C(C)(C)OC)c2ccccc12` (racemic) [Compound 277, (±)-1-(3-methoxy-3-methylbutan-2-yl)-N-((4-methoxy-6-methyl-2-oxo-1,2-dihydropyridin-3-yl)methyl)-2-methyl-1H-indole-3-carboxamide], the half-maximal inhibitory concentration (IC50) against EZH2 (rPRC2) (setting [1]) and against Y641N EZH2 (setting [2]) was less than 100 nM in each case.

For `CCc1cc(OC)c(CNC(=O)c2c(C)n(C(C)COC)c3ncccc23)c(=O)[nH]1` (racemic) [Compound 280, (±)-N-((6-ethyl-4-methoxy-2-oxo-1,2-dihydropyridin-3-yl)methyl)-1-(1-methoxypropan-2-yl)-2-methyl-1H-pyrrolo[2,3-b]pyridine-3-carboxamide], the IC50 on EZH2 (rPRC2) (setting [1]) fell in the range of 100 to 1000 nM; against Y641N EZH2 (setting [2]), 1000 to 10000 nM.

Consider `CCOC(C)C(C)n1c(C)c(C(=O)NCc2c(OC)cc(C)[nH]c2=O)c2ccccc21` (racemic) [Compound 290, (±)-1-(3-ethoxybutan-2-yl)-N-((4-methoxy-6-methyl-2-oxo-1,2-dihydropyridin-3-yl)methyl)-2-methyl-1H-indole-3-carboxamide], for which the IC50 is less than 100 nM on EZH2 (rPRC2) (setting [1]) and 100 to 1000 nM at Y641N EZH2 (setting [2]).

Take `COCC(C)n1c(C)c(C(=O)NCc2c(OC)cc(C)[nH]c2=O)c2ccc(N3CCNCC3)nc21` (racemic) [Compound 295, (±)-N-((4-methoxy-6-methyl-2-oxo-1,2-dihydropyridin-3-yl)methyl)-1-(1-methoxypropan-2-yl)-2-methyl-6-(piperazin-1-yl)-1H-pyrrolo[2,3-b]pyridine-3-carboxamide]: the IC50 on EZH2 (rPRC2) (setting [3]) was in the range of 100 to 1000 nM; on Y641N EZH2 (setting [4]), 1000 to 10000 nM.

Consider `COCCOC(C)C(C)n1c(C)c(C(=O)NCc2c(OC)cc(C)[nH]c2=O)c2cccnc21` (racemic) [Compound 297, (±)-N-((4-methoxy-6-methyl-2-oxo-1,2-dihydropyridin-3-yl)methyl)-1-(3-(2-methoxyethoxy)butan-2-yl)-2-methyl-1H-pyrrolo[2,3-b]pyridine-3-carboxamide 2,2,2-trifluoroacetate], for which the values for the IC50 against EZH2 (rPRC2) (setting [1]) and at Y641N EZH2 (setting [2]) were less than 100 nM and 100 to 1000 nM, respectively.

Consider `COc1cc(C)[nH]c(=O)c1CNC(=O)c1c(C)n(C(C)CC#N)c2ncccc12` (racemic) [Compound 301, (±)-1-(1-cyanopropan-2-yl)-N-((4-methoxy-6-methyl-2-oxo-1,2-dihydropyridin-3-yl)methyl)-2-methyl-1H-pyrrolo[2,3-b]pyridine-3-carboxamide], for which the 50% inhibitory concentration (IC50) against EZH2 (rPRC2) (setting [1]) is less than 100 nM; at Y641N EZH2 (setting [2]), 100 to 1000 nM.

For `COCC(C)n1c(C)c(C(=O)NCc2c(OC)cc(C)[nH]c2=O)c2ccc(C(F)(F)F)nc21` (racemic) [Compound 309, (±)-N-((4-methoxy-6-methyl-2-oxo-1,2-dihydropyridin-3-yl)methyl)-1-(1-methoxypropan-2-yl)-2-methyl-6-(trifluoromethyl)-1H-pyrrolo[2,3-b]pyridine-3-carboxamide], the half-maximal inhibitory concentration (IC50) against EZH2 (rPRC2) (setting [1]) was in the range of 100 to 1000 nM; at Y641N EZH2 (setting [2]), 1000 to 10000 nM.

Turning to `COc1cc(C)[nH]c(=O)c1CNC(=O)c1c(C)n(C(C)C2CCC(F)(F)CC2)c2ncncc12` (racemic) [Compound 334, (±)-7-(1-(4,4-difluorocyclohexyl)ethyl)-N-((4-methoxy-6-methyl-2-oxo-1,2-dihydropyridin-3-yl)methyl)-6-methyl-7H-pyrrolo[2,3-d]pyrimidine-5-carboxamide], the concentration for half-maximal inhibition (IC50) on EZH2 (rPRC2) (setting [1]) is less than 100 nM; against Y641N EZH2 (setting [2]), 100 to 1000 nM.

Regarding `Cc1cc(C)c(CNC(=O)c2cnn(C(C)c3ccccc3)c2C)c(O)n1` (single isomer, unassigned) [Compound 107, (R or S)—N-((2-hydroxy-4,6-dimethylpyridin-3-yl)methyl)-5-methyl-1-(1-phenylethyl)-1H-pyrazole-4-carboxamide], the half-inhibitory concentration (IC50) at EZH2 (rPRC2) (setting [3]) and on Y641N EZH2 (setting [4]) was more than 10000 nM in each case.

In turn, `CCC(C)n1c(C)c(C(=O)NCc2c(C)cc(C)[nH]c2=O)c2cccnc21` (single isomer, unassigned) [Compound 195, (R or S)-1-(sec-butyl)-N-((4,6-dimethyl-2-oxo-1,2-dihydropyridin-3-yl)methyl)-2-methyl-1H-pyrrolo[2,3-b]pyridine-3-carboxamide] had an IC50 at EZH2 (rPRC2) (setting [1]) of 100 to 1000 nM. Besides, the “Y641N EZH2 IC50” value at Y641N EZH2 (setting [5]) was “*(0.5 μM)”.
